Results taken from patent publication US9884842B2, “Combretastatin analogs” (The Board of Trustees of the University of Arkansas, priority 2013, dated 2018).
Where two headings read alike, the source gives them in different places.

What was measured:
UACC-257 = assay: NCI growth inhibition and cytotoxicity screen, Melanoma panel; conditions: Homo sapiens; for CC50: UACC-257, read-out: LC50
SF-268 = assay: NCI growth inhibition and cytotoxicity screen, CNS Cancer panel; conditions: Homo sapiens; for GI50: SF-268; for CC50: SF-268, read-out: LC50
NCI-H522 = assay: NCI growth inhibition and cytotoxicity screen, Lung Cancer panel; assay type: cell-based; conditions: Homo sapiens, Table 2, cell line NCI-H522 (Lung Cancer); for CC50: read-out: LC50 (the source's name)
SNB-75 = assay: NCI growth inhibition and cytotoxicity screen, CNS Cancer panel; conditions: Homo sapiens; for GI50: SNB-75; for CC50: SNB-75, read-out: LC50
MDA-MB-468 = assay: cells; conditions: Homo sapiens; for GI50: MDA-MB-468; for CC50: MDA-MB-468, read-out: LC50
HCT-116 = assay: NCI growth inhibition and cytotoxicity screen, Colon Cancer panel; conditions: Homo sapiens; for GI50: HCT-116; for CC50: HCT-116, read-out: LC50
U251 = assay: NCI growth inhibition and cytotoxicity screen, CNS Cancer panel; conditions: Homo sapiens; for GI50: U-251; for CC50: U-251, read-out: LC50
M14 = assay: NCI growth inhibition and cytotoxicity screen, Melanoma panel; conditions: Homo sapiens; for GI50: M14; for CC50: M14, read-out: LC50
HS 578T = assay: NCI growth inhibition and cytotoxicity screen, Breast Cancer panel; conditions: Homo sapiens; for CC50: read-out: LC50
OVCAR-8 = assay: NCI growth inhibition and cytotoxicity screen, Ovarian Cancer panel; conditions: Homo sapiens; for GI50: OVCAR-8; for CC50: OVCAR-8, read-out: LC50
[1] = test system: full panel of 60 different cancer cell lines; assay: NCI five dose screen, full panel summary; assay type: cell-based, human; conditions: for GI50: Homo sapiens; for potent growth inhibition on % of the cancer cell lines: share of the cancer cell lines potently inhibited
SK-OV-3 = assay: NCI growth inhibition and cytotoxicity screen, Ovarian Cancer panel; conditions: Homo sapiens; for GI50: SK-OV-3; for CC50: SK-OV-3, read-out: LC50
HCC-2998 = assay: NCI growth inhibition and cytotoxicity screen, Colon Cancer panel; conditions: Homo sapiens; for GI50: HCC 2998; for CC50: HCC 2998, read-out: LC50
A549/ATCC = assay: NCI growth inhibition and cytotoxicity screen, Lung Cancer panel; conditions: Homo sapiens; for GI50: A549; for CC50: A549, read-out: LC50
UACC-62 = assay: NCI growth inhibition and cytotoxicity screen, Melanoma panel; conditions: Homo sapiens; for GI50: UACC-62; for CC50: UACC-62, read-out: LC50
DU-145 = assay: NCI growth inhibition and cytotoxicity screen, Prostate Cancer panel; conditions: Homo sapiens; for GI50: DU-145; for CC50: DU-145, read-out: LC50
SNB-19 = assay: NCI growth inhibition and cytotoxicity screen, CNS Cancer panel; conditions: Homo sapiens; for GI50: SNB-19; for CC50: SNB-19, read-out: LC50
SW-620 = assay: NCI growth inhibition and cytotoxicity screen, Colon Cancer panel; conditions: Homo sapiens; for GI50: SW-620; for CC50: SW-620, read-out: LC50
NCI-H460 = assay: NCI growth inhibition and cytotoxicity screen, Lung Cancer panel; conditions: Homo sapiens; for GI50: NCI-H460; for CC50: NCI-H460, read-out: LC50
SN12C = assay: NCI growth inhibition and cytotoxicity screen, Renal Cancer panel; conditions: Homo sapiens; for CC50: read-out: LC50
PC-3 = assay: NCI growth inhibition and cytotoxicity screen, Prostate Cancer panel; conditions: Homo sapiens; for GI50: PC-3; for CC50: PC-3, read-out: LC50
SK-MEL-5 = assay: NCI growth inhibition and cytotoxicity screen, Melanoma panel; conditions: Homo sapiens; for GI50: SK-MEL-5; for CC50: SK-MEL-5, read-out: LC50
HCT-15 = assay: NCI growth inhibition and cytotoxicity screen, Colon Cancer panel; conditions: Homo sapiens; for GI50: HCT-15; for CC50: HCT-15, read-out: LC50
OVCAR-4 = assay: NCI growth inhibition and cytotoxicity screen, Ovarian Cancer panel; conditions: Homo sapiens; for GI50: OVCAR-4; for CC50: OVCAR-4, read-out: LC50
HOP-92 = assay: NCI growth inhibition and cytotoxicity screen, Lung Cancer panel; conditions: Homo sapiens; for GI50: HOP-92; for CC50: HOP-92, read-out: LC50
RXF 393 = assay: NCI growth inhibition and cytotoxicity screen, Renal Cancer panel; conditions: Homo sapiens; for GI50: RXF 393; for CC50: RXF 393, read-out: LC50
HOP-62 = assay: NCI growth inhibition and cytotoxicity screen, Lung Cancer panel; conditions: Homo sapiens; for GI50: HOP-62; for CC50: HOP-62, read-out: LC50
[2] = range over the potently inhibited cell lines, read-out: GI50 ranging (potently inhibited cancer cell lines)
[3] = read-out: average GI50 value on all the cancer cell lines

COc1cc(OC)cc(/C(C#N)=C/c2ccc3ccccc3n2)c1 [PNR-4-84, (Z)-2-(3,5-dimethoxyphenyl)-3-(quinolin-2-yl)acrylonitrile]
CC50 (UACC-257): > 100000 nM | GI50 (SF-268): 476 nM | CC50 (SF-268): > 100000 nM | GI50 (NCI-H522): 94 nM | CC50 (NCI-H522): > 100000 nM | GI50 (SNB-75): 311 nM | CC50 (SNB-75): > 100000 nM | GI50 (MDA-MB-468): 1500 nM | CC50 (MDA-MB-468): > 100000 nM | GI50 (HCT-116): 416 nM | CC50 (HCT-116): 47300 nM | GI50 (U251): 425 nM | CC50 (U251): > 100000 nM | GI50 (M14): 360 nM | CC50 (M14): > 100000 nM | GI50 (HS 578T): 700 nM | CC50 (HS 578T): > 100000 nM | GI50 (OVCAR-8): 659 nM | CC50 (OVCAR-8): > 100000 nM | GI50 [1, 2]: 94 to 983 nM | GI50 [1, 3]: 490 nM | potent growth inhibition on % of the cancer cell lines [1]: 86% | GI50 (SK-OV-3): 804 nM | CC50 (SK-OV-3): > 100000 nM | GI50 (HCC-2998): 1420 nM | CC50 (HCC-2998): > 100000 nM | GI50 (A549/ATCC): 649 nM | CC50 (A549/ATCC): > 100000 nM | GI50 (UACC-62): 449 nM | CC50 (UACC-62): > 100000 nM | GI50 (DU-145): 801 nM | CC50 (DU-145): > 100000 nM | GI50 (SNB-19): 728 nM | CC50 (SNB-19): > 100000 nM | GI50 (SW-620): 357 nM | CC50 (SW-620): > 100000 nM | GI50 (NCI-H460): 339 nM | CC50 (NCI-H460): > 100000 nM | GI50 (SN12C): 661 nM | CC50 (SN12C): > 100000 nM | GI50 (PC-3): 584 nM | CC50 (PC-3): > 100000 nM | GI50 (SK-MEL-5): 406 nM | CC50 (SK-MEL-5): > 100000 nM | GI50 (HCT-15): 409 nM | CC50 (HCT-15): > 100000 nM | GI50 (OVCAR-4): 788 nM | CC50 (OVCAR-4): > 100000 nM | GI50 (HOP-92): 542 nM | CC50 (HOP-92): > 100000 nM | GI50 (RXF 393): 334 nM | CC50 (RXF 393): > 100000 nM | GI50 (HOP-62): 959 nM | CC50 (HOP-62): > 100000 nM

COc1cc(OC)cc(/C(C#N)=C/c2cnc3ccccc3c2)c1 [PNR-4-85, (Z)-3-(quinolin-3-yl)-2-(3,5-dimethoxyphenyl)acrylonitrile]
GI50 (UACC-257; UACC-257): 12800 nM | CC50 (UACC-257): > 100000 nM | GI50 (SF-268): 654 nM | CC50 (SF-268): > 100000 nM | GI50 (NCI-H522): 69 nM | CC50 (NCI-H522): > 100000 nM | GI50 (SNB-75): 224 nM | CC50 (SNB-75): > 100000 nM | GI50 (MDA-MB-468): 217 nM | CC50 (MDA-MB-468): > 100000 nM | GI50 (HCT-116): 420 nM | CC50 (HCT-116): > 100000 nM | GI50 (U251): 374 nM | CC50 (U251): > 100000 nM | GI50 (M14): 310 nM | CC50 (M14): > 100000 nM | GI50 (HS 578T): 715 nM | CC50 (HS 578T): > 100000 nM | GI50 (OVCAR-8): 584 nM | CC50 (OVCAR-8): > 100000 nM | GI50 [1, 2]: 53 to 903 nM | GI50 [1, 3]: 2210 nM | potent growth inhibition on % of the cancer cell lines [1]: 81% | GI50 (SK-OV-3): 576 nM | CC50 (SK-OV-3): > 100000 nM | GI50 (HCC-2998): 1450 nM | CC50 (HCC-2998): > 100000 nM | GI50 (A549/ATCC): 556 nM | CC50 (A549/ATCC): > 100000 nM | GI50 (UACC-62): 357 nM | CC50 (UACC-62): > 100000 nM | GI50 (DU-145): 505 nM | CC50 (DU-145): > 100000 nM | GI50 (SNB-19): 614 nM | CC50 (SNB-19): > 100000 nM | GI50 (SW-620): 352 nM | CC50 (SW-620): > 100000 nM | GI50 (NCI-H460): 362 nM | CC50 (NCI-H460): > 100000 nM | GI50 (SN12C): 661 nM | CC50 (SN12C): > 100000 nM | GI50 (PC-3): 506 nM | CC50 (PC-3): > 100000 nM | GI50 (SK-MEL-5): 249 nM | CC50 (SK-MEL-5): > 100000 nM | GI50 (HCT-15): 455 nM | CC50 (HCT-15): > 100000 nM | GI50 (OVCAR-4): 1730 nM | CC50 (OVCAR-4): > 100000 nM | GI50 (HOP-92): 3090 nM | CC50 (HOP-92): > 100000 nM | GI50 (RXF 393): 297 nM | CC50 (RXF 393): > 100000 nM | GI50 (HOP-62): 793 nM | CC50 (HOP-62): > 100000 nM
